From PMC6615598, “Novel antibiotics effective against gram-positive and -negative multi-resistant bacteria with limited resistance” (PLoS Biology, 2019)
Starred links: 1 amine or outer side, 2 acyl side, 3 side chain; linkers in the order of their positions; H or OH if unused. Non-standard residues stand in square brackets, D forms with d. Residues, ends and D or L forms follow the SMILES beside them. azaβ3(1Nal) = O=C(CN(Cc1cccc2ccccc12)N[*:1])[*:2]

Columns and labels:
MRSA (Mu3) = assay: microbe, parasite or virus in culture; conditions: MRSA (Mu3)
Experimental: (§1) For 15 d in MHB, MICs were determined daily for each pseudopeptide and their antibiotic controls. This was done using cells from the well in which the compound concentration was one-half of the MIC (1/2MIC). For each compound, the 1/2MIC well from the previous day’s MIC assay plate was re-suspended and the bacteria grown to a density of about 10^8 cells ml−1. The suspension was diluted in MHB or CAMHB (10^6 cells/ml) and then used to determine the MIC of the same compound determined by micro broth dilution. All MIC measurements were performed in duplicate. Aliquots of the 5 × 10^4 cell/ml dilutions for each 1/2MIC well were periodically plated on MHB and incubated at 35°C for 18 h to verify cell density by colony counts and for visual inspection of colony phenotypes. To control compound stability, peptide solution MICs were determined during and at the end of the 15 d and were compared to cells unexposed to antibiotics. In vivo resistance was also assessed in treated mice (1.5 mg.kg^−1) for 4 d (sepsis) or 6 d (skin abscesses). […] The broth microdilution method was performed as per EUCAST recommendations on 5 independent colonies per mouse (3 mice per set, 15 colonies per drug tested). For severe sepsis and subcutaneous abscesses, in vivo resistance was determined by plating aliquots of crude kidney extracts or abscesses on plates containing 1-, 2-, 4-, or 8-fold the peptide MICs 7 or 3 d post infections, respectively.

E. coli MCR1 = assay: microbe, parasite or virus in culture
Experimental: as §1

E. coli 13090 = assay: microbe, parasite or virus in culture
Experimental: as §1

P. aeruginosa 15643 = assay: microbe, parasite or virus in culture
Experimental: as §1

E. coli K12 = assay: microbe, parasite or virus in culture
Experimental: as §1

MSSA (Newman) = assay: microbe, parasite or virus in culture; conditions: MSSA (Newman)
Experimental: as §1

[1] = Stability in mouse serum (half-life); format: in vitro ADME; conditions: 25% mouse serum, pre-incubated 15 min at 37°C, peptide 10^−4 M, RP-HPLC peak areas, mean of biological triplicates
Experimental: (§2) (10−4 M final concentrations). At selected time intervals, 100 μl of reaction mixture was collected, quenched by 200 μl 95% EtOH, and adjusted at pH 2 to prevent peptide adsorption to serum proteins. […] Supernatants were analyzed by RP-HPLC on an Xbridge C18 column with a linear gradient of water, 0.08% TFA, and acetonitrile with 1% TFA. HPLC peak areas were used to calculate the percentages of intact compound remaining at the various time points. MIC and MBC values were determined in triplicate in many ESKAPE clinical isolates, including a dozen MDR S. aureus, by the broth microdilution method. Peptidomimetics and antibiotics were assayed in a concentration range of 1 to 128 μM. The bacterial inoculum (5 × 10^5 colony-forming units [CFUs]/well) was prepared in MHB or CAMHB (150 μl). A Biotek Synergy 2 spectrophotometer was used to record the results after 18–20 h incubation at 35°C (±2°C). […] After every hour of culture for 4 h, serial dilutions were plated on BHI plates and incubated overnight at 37°C, and then the CFUs were counted and expressed as log CFU/ml. Phosphate-buffered saline (PBS)-exposed S. aureus MRSA was included as a control.
Supplementary file pbio.3000337.s013.docx: S7 Table Peptide half-lives in human and mouse sera. […] Peptide amounts and half-lives were determined by HPLC. Experiments were conducted on 25% human or mouse sera. Values are shown in minutes. The mean values correspond to biological triplicates. HPLC, high pressure liquid chromatography. (DOCX) Click here for additional data file.

S. aureus FORT = assay: microbe, parasite or virus in culture
Experimental: as §2
(§3) Supplementary file pbio.3000337.s007.docx: S1 Table Antibacterial activity of the 4 peptidomimetics focusing on 9 S. aureus MDR clinical isolates. Clinical isolates BCB/POE and 740404 DUN are from human sepsis. The other strains are from catheter infections or suppurating wounds. Brilacidin was used as a control. MDR, multidrug resistant. (DOCX) Click here for additional data file.

S. aureus 740404 DUN = assay: microbe, parasite or virus in culture
Experimental: as §2, §3

S. aureus 702697 HOU = assay: microbe, parasite or virus in culture
Experimental: as §2, §3

S. aureus 66534 E = assay: microbe, parasite or virus in culture
Experimental: as §2, §3

S. aureus BCB/POE = assay: microbe, parasite or virus in culture
Experimental: as §2, §3

S. aureus PM64 = assay: microbe, parasite or virus in culture
Experimental: as §2, §3

S. aureus COB = assay: microbe, parasite or virus in culture
Experimental: as §2, §3

S. aureus ROUS = assay: microbe, parasite or virus in culture
Experimental: as §2, §3

S. aureus Mu3 (MRSA) = assay: microbe, parasite or virus in culture; conditions: Mu3
Experimental: as §2

S. aureus Newman = assay: microbe, parasite or virus in culture; conditions: Newman
Experimental: as §2

S. aureus N315 (MRSA) = assay: microbe, parasite or virus in culture; conditions: N315
Experimental: as §2

[2] = d14 of serial passages at sub-MIC
[3] = E. coli MCR1, d0 of serial passages
[4] = E. coli MCR1, d14 of serial passages at sub-MIC
[5] = E. coli 13090, d0 of serial passages
[6] = E. coli 13090, d14 of serial passages at sub-MIC
[7] = P. aeruginosa 15643, d0 of serial passages
[8] = P. aeruginosa 15643, d14 of serial passages at sub-MIC
[9] = E. coli K12, d0 of serial passages
[10] = E. coli K12, d14 of serial passages at sub-MIC

SMILES | MIC (MRSA (Mu3); [2]) | MIC (E. coli MCR1; [3]) | MIC (E. coli MCR1; [4]) | MIC (E. coli 13090; [5]) | MIC (E. coli 13090; [6]) | MIC (P. aeruginosa 15643; [7]) | MIC (P. aeruginosa 15643; [8]) | MIC (E. coli K12; [9]) | MIC (E. coli K12; [10]) | MIC (MSSA (Newman); d0 of serial passages) | MIC (MSSA (Newman); [2]) | half-life [1] | MIC (S. aureus Mu3 (MRSA)) | MIC (S. aureus Newman) | MIC (S. aureus N315 (MRSA)) | other results
CC(C)[C@@H]1NC(=O)[C@H](CCCNC(=N)N)NC(=O)[C@H](CCCNC(=N)N)NC(=O)[C@H](Cc2c[nH]c3ccccc23)NC(=O)[C@H](Cc2ccccc2)NC(=O)[C@H](Cc2ccccc2)NC(=O)[C@H](CCCCN)NC1=O [Pep18] (cyclo(FFWRRVK)) | 16 (16.4) μM | 16 (16.4) μM | 64 (65.6) μM | 16 (16.4) μM | 64 (65.6) μM | 16 (16.4) μM | 16 (16.4) μM | 16 (16.4) μM | 64 (65.6) μM | 16 (16.4) μM | 64 (65.6) μM | 8.5 ± 2.5 h | 8 (8.2) μM | 16 (16.4) μM | 8 (8.2) μM | MIC (S. aureus FORT; MDR S. aureus clinical isolate FORT): >32 mg/L^-1; MIC (S. aureus 740404 DUN; MDR S. aureus clinical isolate 740404 DUN, human sepsis): 32 mg/L^-1; MIC (S. aureus 702697 HOU; MDR S. aureus clinical isolate 702697 HOU): 16 mg/L^-1; MIC (S. aureus 66534 E; MDR S. aureus clinical isolate 66534 E): 32 mg/L^-1; MIC (S. aureus BCB/POE; MDR S. aureus clinical isolate BCB/POE, human sepsis): 32 mg/L^-1; MIC (S. aureus PM64; MDR S. aureus clinical isolate PM64): 32 mg/L^-1; MIC (S. aureus COB; MDR S. aureus clinical isolate COB): 32 mg/L^-1; MIC (S. aureus ROUS; MDR S. aureus clinical isolate ROUS): 8 mg/L^-1
CC(C)[C@@H]1NC(=O)[C@H](CCCNC(=N)N)NC(=O)[C@H](CCCNC(=N)N)NC(=O)CN(Cc2cccc3ccccc23)NC(=O)[C@H](Cc2ccccc2)NC(=O)CN(Cc2cccc3ccccc23)NC(=O)[C@H](CCCCN)NC1=O [Pep19] (cyclo([azaβ3(1Nal)]F[azaβ3(1Nal)]RRVK)) | 8 (8.8) μM | 8 (8.8) μM | 8 (8.8) μM | 8 (8.8) μM | 8 (8.8) μM | 8 (8.8) μM | 16 (16.2) μM | 4 (4.4) μM | 8 (8.8) μM | 4 (4.4) μM | 4 (4.4) μM | 9 ± 1.75 h | 4 (4.5) μM | 4 (4.5) μM | 4 (4.5) μM | MIC (MRSA (Mu3); d0 of serial passages): 4 (4.4) μM; MIC (S. aureus FORT; FORT): 8 mg/L^-1; MIC (S. aureus 740404 DUN; 740404 DUN): 8 mg/L^-1; MIC (S. aureus 702697 HOU; 702697 HOU): 4 mg/L^-1; MIC (S. aureus 66534 E; 66534 E): 2 mg/L^-1; MIC (S. aureus BCB/POE; BCB/POE): 8 mg/L^-1; MIC (S. aureus PM64; PM64): 8 mg/L^-1; MIC (S. aureus COB; COB): 2 mg/L^-1; MIC (S. aureus ROUS; ROUS): 2 mg/L^-1
